This note sets out measurements from US8574563B2 (Bristol-Myers Squibb Company, priority 2006, dated 2013).

Bounds are passed on as bounds.

One assay has as its system HCV 1b-377-neo replicon cells. Description: HCV replicon assay, HCV 1b-377-neo replicon cells (1b FRET). Format: cell-based, Hepatitis C virus genotype 1b. The note with it: HCV 1b-377-neo replicon cells; HCV 1b genotype. Put shortly:
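FRET-based replicon assay in HCV 1b-377-neo cells, including a comparison line carrying the NS5A Y2065H mutation that confers resistance to a reference compound.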
A general note: Replicon systems follow genome replication, usually without infectious particles.
With `COC(=O)N[C@@H](C(=O)N1CCC[C@@H]1c1ncc(-c2ccc(-c3ccc(-c4cnc([C@H]5CCCN5C(=O)[C@H](NC(=O)OC)C5CC5)[nH]4)cc3)cc2)[nH]1)C1CC1` [Example M29], the “EC50 range against HCV 1b (Table 2, Range)” value was “>A”.

The assay is the same for the next values; noted with them: HCV 1b-377-neo replicon cells; HCV 1b genotype; read-out: EC50 range against HCV 1b (Table 2, Range).
By EC50 is commonly meant the concentration giving half of the maximal effect. With `CCN(CC)[C@@H](C(=O)N1CCC[C@H]1c1ncc(-c2ccc(-c3ccc(-c4cnc([C@@H]5CCCN5C(=O)C5(NC(=O)OC)CC5)[nH]4)cc3)cc2)[nH]1)c1ccccc1` [Example M33, methyl (1-(((2S)-2-(5-(4′-(2-((2S)-1-((2R)-2-(diethylamino)-2-phenylacetyl)-2-pyrrolidinyl)-1H-imidazol-5-yl)-4-biphenylyl)-1H-imidazol-2-yl)-1-pyrrolidinyl)carbonyl)cyclopropyl) carbamate], the EC50 lay within 1 to 99 nM.
In the case of `CCN(CC)[C@@H](C(=O)N1CCC[C@H]1c1ncc(-c2ccc(-c3ccc(-c4cnc([C@@H]5CCCN5C(=O)C5(NC(=O)OC)CCC5)[nH]4)cc3)cc2)[nH]1)c1ccccc1` [Example M41, methyl (1-(((2S)-2-(5-(4′-(2-((2S)-1-((2R)-2-(diethylamino)-2-phenylacetyl)-2-pyrrolidinyl)-1H-imidazol-5-yl)-4-biphenylyl)-1H-imidazol-2-yl)-1-pyrrolidinyl)carbonyl)cyclobutyl) carbamate], the EC50 fell in the range of 1 to 99 nM.
On the same count and under the same terms, in the case of `CCN(CC)[C@@H](C(=O)N1CCC[C@H]1c1ncc(-c2ccc(-c3ccc(-c4cnc([C@@H]5CCCN5C(=O)C5(NC(=O)OC)CCCC5)[nH]4)cc3)cc2)[nH]1)c1ccccc1` [Example M42, methyl (1-(((2S)-2-(5-(4′-(2-((2S)-1-((2R)-2-(diethylamino)-2-phenylacetyl)-2-pyrrolidinyl)-1H-imidazol-5-yl)-4-biphenylyl)-1H-imidazol-2-yl)-1-pyrrolidinyl)carbonyl)cyclopentyl) carbamate] it was 1 to 99 nM.

The assay is the same for the next values; noted with them: Hepatitis C virus, HCV 1b-377-neo replicon cells; HCV 1b genotype; read-out: EC50 range against HCV 1b (Table 2, Range).
Regarding `COC(=O)N[C@H](C(=O)N1CCC[C@@H]1c1ncc(-c2ccc(-c3ccc(-c4cnc([C@@H]5CCCN5C(=O)[C@@H](NC(=O)OC)C(C)C)[nH]4)cc3)cc2)[nH]1)C(C)C` [Example M28-2, methyl ((1S)-1-(((2S)-2-(5-(4′-(2-((2R)-1-((2S)-2-((methoxycarbonyl)amino)-3-methylbutanoyl)-2-pyrrolidinyl)-1H-imidazol-5-yl)-4-biphenylyl)-1H-imidazol-2-yl)-1-pyrrolidinyl)carbonyl)-2-methylpropyl)carbamate], the EC50 was in the range of 100 to 999 nM.
Turning to `CCOC(=O)N[C@H](C)C(=O)N1CCC[C@H]1c1ncc(-c2ccc(-c3ccc(-c4cnc([C@@H]5CCCN5C(=O)[C@@H](c5ccccc5)N(CC)CC)[nH]4)cc3)cc2)[nH]1` [Example M30, ethyl ((1R)-2-((2S)-2-(5-(4′-(2-((2S)-1-((2R)-2-(diethylamino)-2-phenylacetyl)-2-pyrrolidinyl)-1H-imidazol-5-yl)-4-biphenylyl)-1H-imidazol-2-yl)-1-pyrrolidinyl)-1-methyl-2-oxoethyl)carbamate], the concentration giving a half-maximal response (EC50) lay within 1 to 99 nM.
Same read-out and setting: in the case of `CCOC(=O)N[C@@H](C)C(=O)N1CCC[C@H]1c1ncc(-c2ccc(-c3ccc(-c4cnc([C@@H]5CCCN5C(=O)[C@@H](c5ccccc5)N(CC)CC)[nH]4)cc3)cc2)[nH]1` [Example M31, ethyl ((1S)-2-((2S)-2-(5-(4′-(2-((2S)-1-((2R)-2-(diethylamino)-2-phenylacetyl)-2-pyrrolidinyl)-1H-imidazol-5-yl)-4-biphenylyl)-1H-imidazol-2-yl)-1-pyrrolidinyl)-1-methyl-2-oxoethyl)carbamate] it was 1 to 99 nM; in that of `CCN(CC)[C@@H](C(=O)N1CCC[C@H]1c1ncc(-c2ccc(-c3ccc(-c4cnc([C@@H]5CCCN5C(=O)[C@@H]5CCC(=O)N5)[nH]4)cc3)cc2)[nH]1)c1ccccc1` [Example M32, (5S)-5-(((2S)-2-(5-(4′-(2-((2S)-1-((2R)-2-(diethylamino)-2-phenylacetyl)-2-pyrrolidinyl)-1H-imidazol-5-yl)-4-biphenylyl)-1H-imidazol-2-yl)-1-pyrrolidinyl)carbonyl)-2-pyrrolidinone], 100 to 999 nM; in that of `CCN(CC)[C@@H](C(=O)N1CCC[C@H]1c1ncc(-c2ccc(-c3ccc(-c4cnc([C@@H]5CCCN5C(=O)C(C)(C)NC(=O)OC)[nH]4)cc3)cc2)[nH]1)c1ccccc1` [Example M34, methyl (2-((2S)-2-(5-(4′-(2-((2S)-1-((2R)-2-(diethylamino)-2-phenylacetyl)-2-pyrrolidinyl)-1H-imidazol-5-yl)-4-biphenylyl)-1H-imidazol-2-yl)-1-pyrrolidinyl)-1,1-dimethyl-2-oxoethyl)carbamate], 1 to 99 nM.
Same read-out and setting: in the case of `CCN(CC)[C@H](C)C(=O)N1CCC[C@H]1c1ncc(-c2ccc(-c3ccc(-c4cnc([C@@H]5CCCN5C(=O)[C@@H](c5ccccc5)N(CC)CC)[nH]4)cc3)cc2)[nH]1` [Example M35, (2R)-1-((2S)-2-(5-(4′-(2-((2S)-1-((2R)-2-(diethylamino)-2-phenylacetyl)-2-pyrrolidinyl)-1H-imidazol-5-yl)-4-biphenylyl)-1H-imidazol-2-yl)-1-pyrrolidinyl)-N,N-diethyl-1-oxo-2-propanamine] it was 1 to 99 nM.
`CCN(CC)[C@@H](C)C(=O)N1CCC[C@H]1c1ncc(-c2ccc(-c3ccc(-c4cnc([C@@H]5CCCN5C(=O)[C@@H](c5ccccc5)N(CC)CC)[nH]4)cc3)cc2)[nH]1` [Example M36, (2S)-1-((2S)-2-(5-(4′-(2-((2S)-1-((2R)-2-(diethylamino)-2-phenylacetyl)-2-pyrrolidinyl)-1H-imidazol-5-yl)-4-biphenylyl)-1H-imidazol-2-yl)-1-pyrrolidinyl)-N,N-diethyl-1-oxo-2-propanamine]: the concentration for a half-maximal effect (EC50) lay within 1 to 99 nM.
On to `CCN(CC)[C@@H](C(=O)N1CCC[C@H]1c1ncc(-c2ccc(-c3ccc(-c4cnc([C@@H]5CCCN5C(=O)c5ncco5)[nH]4)cc3)cc2)[nH]1)c1ccccc1` [Example M37, (1R)-N,N-diethyl-2-((2S)-2-(5-(4′-(2-((2S)-1-(1,3-oxazol-2-ylcarbonyl)-2-pyrrolidinyl)-1H-imidazol-5-yl)-4-biphenylyl)-1H-imidazol-2-yl)-1-pyrrolidinyl)-2-oxo-1-phenylethanamine], for which the EC50 was in the range of 1 to 99 nM.
On the same count and under the same terms, in the case of `CCN(CC)[C@@H](C(=O)N1CCC[C@H]1c1ncc(-c2ccc(-c3ccc(-c4cnc([C@@H]5CCCN5C(=O)c5cccnc5)[nH]4)cc3)cc2)[nH]1)c1ccccc1` [Example M38, (1R)-N,N-diethyl-2-oxo-1-phenyl-2-((2S)-2-(5-(4′-(2-((2S)-1-(3-pyridinylcarbonyl)-2-pyrrolidinyl)-1H-imidazol-5-yl)-4-biphenylyl)-1H-imidazol-2-yl)-1-pyrrolidinyl)ethanamine] it was 1 to 99 nM; in that of `CCN(CC)[C@@H](C(=O)N1CCC[C@H]1c1ncc(-c2ccc(-c3ccc(-c4cnc([C@@H]5CCCN5C(=O)[C@@H](C)O)[nH]4)cc3)cc2)[nH]1)c1ccccc1` [Example M39, (2R)-1-((2S)-2-(5-(4′-(2-((2S)-1-((2R)-2-(diethylamino)-2-phenylacetyl)-2-pyrrolidinyl)-1H-imidazol-5-yl)-4-biphenylyl)-1H-imidazol-2-yl)-1-pyrrolidinyl)-1-oxo-2-propanol], 1 to 99 nM; in that of `CCN(CC)[C@@H](C(=O)N1CCC[C@H]1c1ncc(-c2ccc(-c3ccc(-c4cnc([C@@H]5CCCN5C(=O)[C@H](C)O)[nH]4)cc3)cc2)[nH]1)c1ccccc1` [Example M40, (2S)-1-((2S)-2-(5-(4′-(2-((2S)-1-((2R)-2-(diethylamino)-2-phenylacetyl)-2-pyrrolidinyl)-1H-imidazol-5-yl)-4-biphenylyl)-1H-imidazol-2-yl)-1-pyrrolidinyl)-1-oxo-2-propanol], 1 to 99 nM.
Still for that read-out and setting: the same measure for `CCCN(CCC)[C@@H](C)C(=O)N1CCC[C@H]1c1ncc(-c2ccc(-c3ccc(-c4cnc([C@@H]5CCCN5C(=O)[C@@H](c5ccccc5)N(CC)CC)[nH]4)cc3)cc2)[nH]1` [Example M43, N-((1S)-2-((2S)-2-(5-(4′-(2-((2S)-1-((2R)-2-(diethylamino)-2-phenylacetyl)-2-pyrrolidinyl)-1H-imidazol-5-yl)-4-biphenylyl)-1H-imidazol-2-yl)-1-pyrrolidinyl)-1-methyl-2-oxoethyl)-N-propyl-1-propanamine]: 1 to 99 nM; for `CCN(CC)[C@@H](C(=O)N1CCC[C@H]1c1ncc(-c2ccc(-c3ccc(-c4cnc([C@@H]5CCCN5C(=O)[C@@H]5COC(=O)N5)[nH]4)cc3)cc2)[nH]1)c1ccccc1` [Example M44, (4S)-4-(((2S)-2-(5-(4′-(2-((2S)-1-((2R)-2-(diethylamino)-2-phenylacetyl)-2-pyrrolidinyl)-1H-imidazol-5-yl)-4-biphenylyl)-1H-imidazol-2-yl)-1-pyrrolidinyl)carbonyl)-1,3-oxazolidin-2-one]: 100 to 999 nM; for `CCN(CC)[C@@H](C(=O)N1CCC[C@H]1c1ncc(-c2ccc(-c3ccc(-c4cnc([C@@H]5CCCN5C(=O)[C@@H](C(C)C)N(CC)CC)[nH]4)cc3)cc2)[nH]1)c1ccccc1` [Example M45, (2R)-1-((2S)-2-(5-(4′-(2-((2S)-1-((2R)-2-(diethylamino)-2-phenylacetyl)-2-pyrrolidinyl)-1H-imidazol-5-yl)-4-biphenylyl)-1H-imidazol-2-yl)-1-pyrrolidinyl)-N,N-diethyl-3-methyl-1-oxo-2-butanamine]: 1 to 99 nM.
On the same count and under the same terms, the same measure for `CCCN(CCC)[C@H](C)C(=O)N1CCC[C@H]1c1ncc(-c2ccc(-c3ccc(-c4cnc([C@@H]5CCCN5C(=O)[C@@H](c5ccccc5)N(CC)CC)[nH]4)cc3)cc2)[nH]1` [Example M46, N-((1R)-2-((2S)-2-(5-(4′-(2-((2S)-1-((2R)-2-(diethylamino)-2-phenylacetyl)-2-pyrrolidinyl)-1H-imidazol-5-yl)-4-biphenylyl)-1H-imidazol-2-yl)-1-pyrrolidinyl)-1-methyl-2-oxoethyl)-N-propyl-1-propanamine]: 1 to 99 nM.
